For 18 compounds, T/C results are on record in PubChem BioAssay AID256 (DTP/NCI, 2004).

The structures appear in SMILES notation. Values joined by “and” are separate entries in the source; they are usually repeats but may differ in a detail not shown here. Equal values may be shown once. Toxic doses and inconclusive results are not listed.

This experiment relates to CD2F1 mice, L1210 leukemia ip, survival T/C. Description: NCI In Vivo Anticancer Drug Screen. Data for tumor model L1210 Leukemia (intraperitoneal) in CD2F1 (CDF1) mice. As to conditions: higher = longer survival. The method, boiled down:
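Activity against a transplanted murine tumor was judged by comparing the compound group with a vehicle group. The outcome in the treated animals was divided by that in the controls.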

Setting [1] is: endpoint: mean survival time, dose: 100.0 mg/kg/injection, schedule: Q01DX009 (ip), vehicle: saline with Tween-80.
The mark [2] stands for this setting: endpoint: mean survival time, dose: 100.0 mg/kg/injection, schedule: Q04DX002 (ip), vehicle: saline with Tween-80.
[3] abbreviates: endpoint: mean survival time, dose: 200.0 mg/kg/injection, schedule: Q01DX009 (ip), vehicle: saline with Tween-80.
The mark [4] stands for this setting: endpoint: mean survival time, dose: 400.0 mg/kg/injection, schedule: Q01DX001 (ip), vehicle: saline with Tween-80.
The mark [5] stands for this setting: endpoint: mean survival time, dose: 400.0 mg/kg/injection, schedule: Q04DX003 (ip), vehicle: saline with Tween-80.
[6] abbreviates: endpoint: median survival time, dose: 36.0 mg/kg/injection, schedule: Q01DX005 (ip), vehicle: saline with Tween-80.
Where [7] appears, read: endpoint: median survival time, dose: 60.0 mg/kg/injection, schedule: Q01DX005 (ip), vehicle: saline with Tween-80.
Where [8] appears, read: endpoint: median survival time, dose: 100.0 mg/kg/injection, schedule: Q01DX005 (ip), vehicle: saline with Tween-80.
The mark [9] stands for this setting: endpoint: median survival time, dose: 166.67 mg/kg/injection, schedule: Q01DX005 (ip), vehicle: saline with Tween-80.
[10] abbreviates: endpoint: mean survival time, dose: 100.0 mg/kg/injection, schedule: Q04DX003 (ip), vehicle: saline with Tween-80.
Setting [11] is: endpoint: mean survival time, dose: 200.0 mg/kg/injection, schedule: Q04DX003 (ip), vehicle: saline with Tween-80.
Setting [12] is: endpoint: mean survival time, dose: 100.0 mg/kg/injection, schedule: Q01DX001 (ip), vehicle: saline.

`CCCC(=O)Oc1ccc(/C=N/NC(N)=S)nc1`: the T/C runs as follows: under setting [1], 182 % of control; under setting [2], 115 % of control; (endpoint: mean survival time, dose: 178.0 mg/kg/injection, schedule: Q01DX001 (ip), vehicle: saline with Tween-80) 116 % of control; (endpoint: mean survival time, dose: 178.0 mg/kg/injection, schedule: Q04DX003 (ip), vehicle: saline with Tween-80) 118 % of control; under setting [3], 119 % of control; (endpoint: mean survival time, dose: 266.0 mg/kg/injection, schedule: Q01DX001 (ip), vehicle: saline with Tween-80) 113 % of control. Also, the T/C was 121 % of control (endpoint: mean survival time, dose: 266.0 mg/kg/injection, schedule: Q04DX003 (ip), vehicle: saline with Tween-80); 95 % of control under setting [4]; 117 % of control under setting [5]; 124 % of control (endpoint: mean survival time, dose: 600.0 mg/kg/injection, schedule: Q01DX001 (ip), vehicle: saline with Tween-80); 161 % of control (endpoint: mean survival time, dose: 900.0 mg/kg/injection, schedule: Q01DX001 (ip), vehicle: saline with Tween-80); 151 % of control under setting [6]. Also, the T/C was 172 % of control (endpoint: median survival time, dose: 50.0 mg/kg/injection, schedule: Q01DX009 (ip), vehicle: saline with Tween-80); 160 % of control under setting [7]; 162 % of control under setting [8]; 156 % of control and 247 % of control (endpoint: median survival time, dose: 100.0 mg/kg/injection, schedule: Q01DX009 (ip), vehicle: saline with Tween-80); 112 % of control under setting [9]; 164 % of control and 190 % of control (endpoint: median survival time, dose: 200.0 mg/kg/injection, schedule: Q01DX009 (ip), vehicle: saline with Tween-80). Also, the T/C (endpoint: median survival time, dose: 400.0 mg/kg/injection, schedule: Q01DX009 (ip), vehicle: saline with Tween-80) was 113 % of control and 107 % of control.
Regarding `CC(C)CCCC(C)C1CCC2C3CC4OC45CC(O)CCC5(C)C3CCC12C` (centres undefined), the T/C is 96 % of control under setting [10], 90 % of control under setting [11] and 96 % of control under setting [5].
`Cc1ccc(S(=O)(=O)NC(=O)C(Cc2ccccc2)c2ccccc2)cc1` (centres undefined): the T/C (endpoint: mean survival time, dose: 75.0 mg/kg/injection, schedule: Q01DX001 (ip), vehicle: other) is 96 % of control; the T/C (endpoint: mean survival time, dose: 150.0 mg/kg/injection, schedule: Q01DX001 (ip), vehicle: other) was 98 % of control; the T/C (endpoint: mean survival time, dose: 300.0 mg/kg/injection, schedule: Q01DX001 (ip), vehicle: other) is 96 % of control.
On to `CCCC(=O)N(CC)CC`, for which the T/C by setting is: (endpoint: mean survival time, dose: 50.0 mg/kg/injection, schedule: Q01DX009 (ip), vehicle: saline) 94 % of control; (endpoint: mean survival time, dose: 100.0 mg/kg/injection, schedule: Q01DX009 (ip), vehicle: saline) 98 % of control; (endpoint: mean survival time, dose: 200.0 mg/kg/injection, schedule: Q01DX009 (ip), vehicle: saline) 98 % of control.
As for `CCOC(=O)Cc1c(C)[nH]c2c(C)ccc(C)c12`, under “endpoint: mean survival time, dose: 100.0 mg/kg/injection, schedule: Q01DX001 (ip), vehicle: other”, the T/C is 95 % of control.
For `[Cl][Pt+2][Cl].[NH-]c1ccc(F)cc1F.[NH-]c1ccc(F)cc1F`, the T/C is, setting by setting: (endpoint: mean survival time, dose: 12.5 mg/kg/injection, schedule: Q04DX003 (ip), vehicle: distilled water + Tween-80) 114 % of control and 104 % of control and 110 % of control; (endpoint: mean survival time, dose: 25.0 mg/kg/injection, schedule: Q04DX003 (ip), vehicle: distilled water + Tween-80) 115 % of control and 117 % of control and 96 % of control; (endpoint: mean survival time, dose: 50.0 mg/kg/injection, schedule: Q04DX003 (ip), vehicle: distilled water + Tween-80) 116 % of control and 105 % of control; (endpoint: mean survival time, dose: 100.0 mg/kg/injection, schedule: Q04DX003 (ip), vehicle: distilled water + Tween-80) 122 % of control and 88 % of control and 94 % of control.
For the compound `CN(C)N=Nc1cccc([N+](=O)[O-])c1`, the T/C runs as follows: (endpoint: mean survival time, dose: 79.0 mg/kg/injection, schedule: Q01DX009 (ip), vehicle: Klucel (hydroxypropylcellulose) (HPC)) 107 % of control; (endpoint: mean survival time, dose: 118.0 mg/kg/injection, schedule: Q01DX009 (ip), vehicle: Klucel (hydroxypropylcellulose) (HPC)) 102 % of control.
Consider `CCCCCCCC(=O)N1C(=O)CCC1C(=O)O` (centres undefined), for which the T/C was 100 % of control (endpoint: mean survival time, dose: 100.0 mg/kg/injection, schedule: Q01DX001 (ip), vehicle: Klucel (hydroxypropylcellulose) (HPC)); 100 % of control (endpoint: mean survival time, dose: 200.0 mg/kg/injection, schedule: Q01DX001 (ip), vehicle: Klucel (hydroxypropylcellulose) (HPC)); 104 % of control (endpoint: mean survival time, dose: 400.0 mg/kg/injection, schedule: Q01DX001 (ip), vehicle: Klucel (hydroxypropylcellulose) (HPC)).
`COc1ccc2c(c1)n([O-])c1ccccc1[n+]2=O`: the T/C reads like this: (endpoint: median survival time, dose: 12.5 mg/kg/injection, schedule: Q01DX005 (ip), vehicle: saline with Tween-80) 116 % of control; (endpoint: median survival time, dose: 12.56 mg/kg/injection, schedule: Q01DX005 (ip), vehicle: saline with Tween-80) 115 % of control; (endpoint: median survival time, dose: 21.6 mg/kg/injection, schedule: Q01DX005 (ip), vehicle: saline with Tween-80) 115 % of control; (endpoint: median survival time, dose: 25.0 mg/kg/injection, schedule: Q01DX005 (ip), vehicle: saline with Tween-80) 116 % of control; under setting [6], 222 % of control and 112 % of control; (endpoint: median survival time, dose: 50.0 mg/kg/injection, schedule: Q01DX005 (ip), vehicle: saline with Tween-80) 117 % of control. In addition, the T/C is, setting by setting: under setting [7], 120 % of control and 287 % of control; under setting [8], 300 % of control; under setting [9], 123 % of control.
For `c1cncc(CCc2cccnc2)c1`, the T/C (endpoint: mean survival time, dose: 100.0 mg/kg/injection, schedule: Q04DX003 (ip), vehicle: saline) was 100 % of control and the T/C (endpoint: mean survival time, dose: 200.0 mg/kg/injection, schedule: Q04DX003 (ip), vehicle: saline) was 100 % of control.
Consider `Nc1cccc2nc3ccccc3cc12`, for which the T/C was 93 % of control under setting [1]; 92 % of control under setting [10]; 95 % of control under setting [3]; 94 % of control under setting [11]; 91 % of control under setting [5].
As to `CC(C)(CO)c1ccc(C(c2ccccc2)c2ccccc2)cc1`, the T/C runs as follows: (endpoint: mean survival time, dose: 50.0 mg/kg/injection, schedule: Q01DX009 (ip), vehicle: other) 96 % of control; (endpoint: mean survival time, dose: 100.0 mg/kg/injection, schedule: Q01DX009 (ip), vehicle: other) 101 % of control; (endpoint: mean survival time, dose: 200.0 mg/kg/injection, schedule: Q01DX009 (ip), vehicle: other) 96 % of control.
Regarding `Nc1nc(N)nc(N)n1`, the T/C under setting [1] is 95 % of control; the T/C under setting [10] was 97 % of control; the T/C under setting [3] was 94 % of control; the T/C under setting [11] is 105 % of control; the T/C (endpoint: mean survival time, dose: 400.0 mg/kg/injection, schedule: Q01DX009 (ip), vehicle: saline with Tween-80) was 95 % of control; the T/C under setting [5] is 97 % of control. Moreover, where the note is “endpoint: mean survival time, dose: 800.0 mg/kg/injection, schedule: Q01DX009 (ip), vehicle: saline with Tween-80”, the T/C was 90 % of control.
For `O=C(COc1cccc(Cl)c1)NCc1ccccc1NC(=O)c1ccc(S(=O)(=O)F)cc1`, the T/C was 91 % of control (endpoint: mean survival time, dose: 100.0 mg/kg/injection, schedule: Q01DX001 (ip), vehicle: saline with Tween-80); 95 % of control (endpoint: mean survival time, dose: 200.0 mg/kg/injection, schedule: Q01DX001 (ip), vehicle: saline with Tween-80); 91 % of control under setting [4].
Take `CC[N+]1(CC)N=C([O-])N(C)C1=O`: the T/C reads like this: under setting [12], 103 % of control; (endpoint: mean survival time, dose: 200.0 mg/kg/injection, schedule: Q01DX001 (ip), vehicle: saline) 101 % of control; (endpoint: mean survival time, dose: 400.0 mg/kg/injection, schedule: Q01DX001 (ip), vehicle: saline) 97 % of control.
Take `Cc1cc(Br)c2ccccc2c1N(CC(=O)O)S(=O)(=O)c1ccccc1`: the T/C by setting is: (endpoint: mean survival time, dose: 12.5 mg/kg/injection, schedule: Q01DX009 (ip), vehicle: saline with Tween-80) 103 % of control; (endpoint: mean survival time, dose: 25.0 mg/kg/injection, schedule: Q01DX009 (ip), vehicle: saline with Tween-80) 103 % of control; (endpoint: mean survival time, dose: 50.0 mg/kg/injection, schedule: Q01DX009 (ip), vehicle: saline with Tween-80) 94 % of control.
As to `Cc1cc(C)c2nc(-c3ccc(Cl)cc3)cc(C(=O)O)c2c1`, the T/C is 96 % of control under setting [12]; 94 % of control (endpoint: mean survival time, dose: 100.0 mg/kg/injection, schedule: Q04DX002 (ip), vehicle: Klucel (hydroxypropylcellulose) (HPC)); 94 % of control (endpoint: mean survival time, dose: 200.0 mg/kg/injection, schedule: Q04DX002 (ip), vehicle: Klucel (hydroxypropylcellulose) (HPC)).
Turning to `c1ccc(Sc2ccncc2)cc1`, the T/C by setting is: (endpoint: mean survival time, dose: 25.0 mg/kg/injection, schedule: Q04DX002 (ip), vehicle: saline with Tween-80) 102 % of control; (endpoint: mean survival time, dose: 50.0 mg/kg/injection, schedule: Q04DX002 (ip), vehicle: saline with Tween-80) 91 % of control; under setting [2], 98 % of control and 105 % of control.
